Laboratory results as given in article PMC12603070, “A high-throughput screening approach to discover potential colorectal cancer chemotherapeutics: repurposing drugs to identify novel disruptors of 14-3-3 proteins” (Cell Death & Disease, 2025).
Like-named read-outs stand apart in the source and are kept apart here.

What was measured:
[1] = molecular target: T1, 14-3-3ζ:BAD-112-136F interactions (Homo sapiens, UniProt P63104); assay: BRET sensor screen for disruption of 14-3-3ζ-Rluc8:BAD-112-136F-mCitrine in living NIH-3T3 cells; format: cell-based, murine; design: inhibition: dose or concentration left out as unconfirmed; BRET reduction on NIH-3T3: unit not given here; conditions: for inhibition / inhibition at 20 µM: NIH3T3, 3 h, read-out: BRET reduction on NIH-3T3
T1 construct: expressed in transfected cells; host or cells: NIH-3T3 fibroblasts, bi-directional pBI-CMV1 plasmid
T1 sequence (P63104 1-245): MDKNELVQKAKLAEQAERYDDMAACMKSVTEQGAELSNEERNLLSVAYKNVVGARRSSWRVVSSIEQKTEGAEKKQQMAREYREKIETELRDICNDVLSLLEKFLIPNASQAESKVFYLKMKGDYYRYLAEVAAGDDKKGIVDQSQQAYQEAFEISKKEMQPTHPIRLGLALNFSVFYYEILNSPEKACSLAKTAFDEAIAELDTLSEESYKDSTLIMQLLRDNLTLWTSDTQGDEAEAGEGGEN
In short: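 NIH-3T3 cells were transfected with the BRET sensor two days beforehand, then replated on poly-L-ornithine-coated plates and grown 24 h at 37 °C. Medium was then replaced with Krebs buffer (pH 7.4). Z′-score was calculated to judge HTS robustness.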

NIH-3T3 cells = assay: Hoechst/propidium iodide cell death assay in NIH-3T3; format: cell-based; conditions: for cytotoxicity at 20 µM: Mus musculus, NIH3T3, 24 h, read-out: Percentage of cell death % 24h NIH3t3
Description: (§1) A high-content imaging system (PerkinElmer; Operetta CLS), was used to quantify cell death and apoptosis by calculating the number of propidium iodide-positive cells relative to Hoechst-positive cells, and the number of Annexin V-positive cells relative to Hoechst-positive cells, respectively.

HT-29 cells = assay: Hoechst/propidium iodide cell death assay in HT-29; format: cell-based, human; conditions: for cytotoxicity at 20 µM: Homo sapiens; for %Cell death HT-29: time not given
Description: as §1

Caco-2 cells = format: cell-based; conditions: for Percentage of cell death % 24h CACO-2: 20 µM; for Percentage of cell death % 48h, Caco-2: 20 μM; for %Cell death Caco-2: time not given, text says 48 h
Description: as §1

[2] = system: HT-29 and Caco-2 CRC cells; assay: Cell death in CRC cells, statements covering both HT-29 and Caco-2 (screen at 20 µM, dose-response); format: cell-based, human
Description: Cells were plated at a density of 20,000 cells/well into 96-well plates (PerkinElmer; #6055302) and incubated overnight at 37 °C before the addition of the drugs. One hour prior to imaging, Hoechst 33342 (Invitrogen, #H3570) and propidium iodide (Invitrogen; #P3566) were added to the wells to achieve final concentrations of 50 ng/ml and 0.5 μg/ml, respectively. To measure apoptosis, AlexaFluor 488-conjugated Annexin V (ThermoFisher, Massachusetts, USA; #A13201) was also added at a dilution of 1:400 from the commercial stock. A high-content imaging system (PerkinElmer; Operetta CLS), was used to quantify cell death and apoptosis by calculating the number of propidium iodide-positive cells relative to Hoechst-positive cells, and the number of Annexin V-positive cells relative to Hoechst-positive cells, respectively. To assess caspase-dependent apoptosis, cells were pre-treated for 30 min with the caspase inhibitor Z-VAD-FMK (BD Biosciences, New Jersey, USA; #550377; 20 μM) or the negative control Z-FA-FMK (BD Biosciences; #550411; 20 μM) prior to the incubation of drugs.

[3] = NIH-3T3 cells, hits from the primary screen
[4] = NIH-3T3 expressing BRET sensor, 20 µM, 3 h
[5] = HT-29, 24 h, 20 µM, 24 h, read-out: Percentage of cell death % 24h HT-29
[6] = HT-29, 48 h, HT-29, 48h, 20 μM, read-out: Percentage of cell death % 48h, HT-29

inhibition [1, 3] [%] | inhibition at 20 µM [1, 4] [%] | Molecule | cytotoxicity at 20 µM (NIH-3T3 cells; 20 µM, 24 h) [%] | Percentage of cell death % 48h, NIH3T3 (NIH-3T3 cells) [%] | cytotoxicity at 20 µM (HT-29 cells; [5]) [%] | cytotoxicity at 20 µM (HT-29 cells; [6]) [%] | Percentage of cell death % 24h CACO-2 (Caco-2 cells) [%] | Percentage of cell death % 48h, Caco-2 (Caco-2 cells) [%] | BRET reduction on NIH-3T3 [1, 3] | %Cell death HT-29 (HT-29 cells; HT-29) [%] | %Cell death Caco-2 (Caco-2 cells) [%] | other results
41.6 | 41.6 | CC(C)(C)C#Cc1cc(N(C(=O)[C@H]2CC[C@H](C)CC2)[C@H]2CC[C@H](O)CC2)c(C(=O)O)s1 [VX-222 (VCH-222, Lomibuvir), Lomibuvir] | 5.5 | 38.6762 | 3.68 | 78.5 | 4.951 | 36.3165 |  | 78.5 | 36.3 | Lowest concentration that significantly induced cell death ([2]; dose-response 2.5-20 µM in HT-29 and Caco-2): 5 µM; Efficacy in the magnitude of cell death attained ([2]; dose-response in CRC cells): inferior to other candidates
35.4 | 35.4 | Cc1ccc(Sc2ccccc2N2CCNCC2)c(C)c1 [Vortioxetine (Lu AA21004) HBr, Vortioxetine] | 78.5 | 71.7539 | 7.35 | 52.1 | 33.0298 | 76.1709 |  | 52.1 | 52.1 | 

The remaining lines, values behind:

Molecule | inhibition [1, 3] [%] | inhibition at 20 µM [1, 4] [%] | cytotoxicity at 20 µM (NIH-3T3 cells; 20 µM, 24 h) [%] | Percentage of cell death % 48h, NIH3T3 (NIH-3T3 cells) [%] | cytotoxicity at 20 µM (HT-29 cells; [5]) [%] | cytotoxicity at 20 µM (HT-29 cells; [6]) [%] | Percentage of cell death % 24h CACO-2 (Caco-2 cells) [%] | Percentage of cell death % 48h, Caco-2 (Caco-2 cells) [%] | BRET reduction on NIH-3T3 [1, 3] | %Cell death HT-29 (HT-29 cells; HT-29) [%] | %Cell death Caco-2 (Caco-2 cells) [%] | other results
COc1cc2nccc(Oc3ccc(NC(=O)Nc4cc(C)on4)c(Cl)c3)c2cc1OC [Tivozanib (AV-951), Tivozanib] | 26.5 | 26.5 | 10.8 | 31.2285 | 1.65 | 23 | 5.391 | 6.001 |  |  |  | 
Oc1cc(Cl)ccc1Oc1ccc(Cl)cc1Cl [Triclosan] |  |  |  | 20.8092 |  |  | 23.0449 | 14.8508 | 35.6098 |  |  | inhibition at 20 µM [1]: 35.6%; cytotoxicity at 20 µM (NIH-3T3 cells): 58.2%; cytotoxicity at 20 µM (HT-29 cells; HT-29, 24 h, read-out: Percentage of cell death % 24h HT-29): 20.3%; cytotoxicity at 20 µM (HT-29 cells; HT-29, 48 h, read-out: Percentage of cell death % 48h, HT-29): 21.6%
Ivermectin |  |  |  | 70.901 |  |  | 4.453 | 5.173 | 41.4556 | 78.9 | 5.2 | BRET reduction on NIH-3T3 [1, 4]: 41.4556; Percentage of cell death % 24h NIH3t3 (NIH-3T3 cells; 20 µM, 24 h): 38.0218%; Percentage of cell death % 24h HT-29 (HT-29 cells; 20 µM, 24 h): 6.036%; Percentage of cell death % 48h, HT-29 (HT-29 cells; HT-29, 48h, 20 μM): 78.9396%
